Reference: patent US20230272016A1, “PEPTIDES FOR IMMUNOTHERAPY” (Second Genome, Inc., priority 2020, published 2023)
“Also recorded” adds a separate entry of the source.

Columns and labels:
[1] = tested on: immature monocyte-derived dendritic cells (moDCs) and allogeneic T cells; assay: moDC / allogeneic T cell co-culture cytokine secretion; assay type: cell-based, human; conditions: after anti-CD40 pre-stimulation, peptide alone or in combination with anti PD1; 72 hours; >4 donor PBMCs
Description: In another study, immature monocyte-derived dendritic cells (moDCs) were pre-stimulated with anti-CD40 agonist antibody or the mouse IgG1 isotype control antibody. Twenty-four hours later, T cells isolated from allogeneic donors were added to the moDCs with the peptide of interest, SG-3-00802 or SG-3-05021, alone or in combination with […] monoclonal antibody. The co-culture of cells was incubated for 72 hours, after which cell supernatants were harvested and analyzed for secretion of cytokines, IFN-g and TNF-α. Both SG-3-00802 and SG-3-05021 induced an increase in IFN-γ and TNF-α after stimulation with anti-CD40 either alone or in combination with anti PD1 (FIGS. 26A-26B and 27A-27B). Data shown for experiment conducted in >4 Donor PBMCs.

[2] = tested on: CXCL10 production; assay: Three point dose response cytokine screen of microbiome peptides; assay type: cell-based; conditions: three point dose response curve
Description: Studies were performed to identify target peptides that induced CXCL10 production. Target peptides identified from human microbiomes isolated from humans that responded to anti-PD-1 therapy were each tested in a three point dose response curve with TNF-α, CXCL10, IL6, and INF-γ. […] Peptide sequences and characteristics can be found in Tables 13-15.

[3] = tested on: Human monocyte-derived dendritic cells (moDCs); assay: moDC stimulation with low dose LPS and peptide, flow cytometry; assay type: cell-based; conditions: LPS 2 ng/mL with peptide 10 μM
Description: Human monocyte-derived dendritic cells (moDCs) were stimulated with low dose lipopolysaccharide (LPS) (2 ng/mL) alone, LPS with peptides SG-3-00802 (10 μM) or SG-3-05021 (10 μM), and LPS (2 ng/mL) with IFNg (50 ng/mL) as a positive control. After stimulation of moDCs, flow cytometry was used to determine induction of the CSCR3 receptor.

[4] = target: T1, CCR7 (Homo sapiens, UniProt P32248); assay: SelectScreen chemokine receptor U2OS agonist/antagonist assay; assay type: cell-based; conditions: CCR7 expressing U2OS cells
T1 construct: expressed in transfected cells
T1 sequence (P32248 25-378): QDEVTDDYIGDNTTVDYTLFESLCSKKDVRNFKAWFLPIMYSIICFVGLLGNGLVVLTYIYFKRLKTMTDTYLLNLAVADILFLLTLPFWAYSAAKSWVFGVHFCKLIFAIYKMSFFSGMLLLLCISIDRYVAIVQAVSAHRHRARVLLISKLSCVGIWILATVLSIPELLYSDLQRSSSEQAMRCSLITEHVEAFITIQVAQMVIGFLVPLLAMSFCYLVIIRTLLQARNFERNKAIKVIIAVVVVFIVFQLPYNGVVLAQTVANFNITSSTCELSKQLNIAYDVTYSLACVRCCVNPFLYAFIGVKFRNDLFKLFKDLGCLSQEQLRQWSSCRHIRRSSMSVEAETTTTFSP
Description: (§1) Peptides SG-3-00802 and SG-3-05021 were screened for agonist and antagonist activity of the chemokine receptors CCR7, CXCR3, and CXCR4.
(§2) In agonist assays, chemokine receptor expressing U2OS cells are thawed and resuspended in Assay Media (DMEM, 1% dialyzed FBS, 25 mM HEPES pH 7.3, 0.1 mM NEAA, 100 U/mL/100 μg/mL Pen/Strep) to a concentration of 312,500 cells/mL. 4 μL of a 10×serial dilution of I-TAC (control agonist starting concentration, 500 nM) or compounds are added to appropriate wells of a 384-well TC-Treated assay plate. 32 μL of cell suspension (10,000 cells) is added to each well. 4 μL of Assay Media is added to all wells to bring the final assay volume to 40 μL. The plate is incubated for 16-24 hours at 37° C./5% CO2 in a humidified incubator. 8 μL of 1 μM Substrate+Solution D Loading Solution is added to each well and the plate is incubated for 2 hours at room temperature. The plate is read on a fluorescence plate reader.
(§3) In antagonist assays, CXCR3-bla U2OS cells were thawed and prepared as described above for the Agonist assay. 4 μL of 10×compounds or assay media was added to appropriate wells of a TC-Treated assay plate. 32 μL of cell suspension was added to the wells and pre-incubated at 37° C./5% CO2 in a humidified incubator with compounds and control antagonist titration for 30 minutes. 4 μL of 10×control agonist I-TAC at the pre-determined EC80 concentration is added to wells containing the control antagonist or compounds. The plate is incubated for 16-24 hours at 37° C./5% CO2 in a humidified incubator. 8 μL of 1 μM Substrate+Solution D Loading Solution is added to each well and the plate is incubated for 2 hours at room temperature. The plate is read on a fluorescence plate reader.

[5] = target: T2, CXCR4 (Homo sapiens, UniProt P61073); assay: as above; assay type: cell-based; conditions: CXCR4 expressing U2OS cells
T2 construct: expressed in transfected cells
Description: as §1, §2, §3

[6] = target: T3, CXCR3 (Homo sapiens, UniProt P49682); assay: as above; assay type: cell-based; parameters: host or cells: CXCR3-bla U2OS; conditions: CXCR3-bla U2OS cells; for SelectScreen Antagonist Mode: control agonist I-TAC (CXCL11) at EC80
T3 sequence (P49682 1-368): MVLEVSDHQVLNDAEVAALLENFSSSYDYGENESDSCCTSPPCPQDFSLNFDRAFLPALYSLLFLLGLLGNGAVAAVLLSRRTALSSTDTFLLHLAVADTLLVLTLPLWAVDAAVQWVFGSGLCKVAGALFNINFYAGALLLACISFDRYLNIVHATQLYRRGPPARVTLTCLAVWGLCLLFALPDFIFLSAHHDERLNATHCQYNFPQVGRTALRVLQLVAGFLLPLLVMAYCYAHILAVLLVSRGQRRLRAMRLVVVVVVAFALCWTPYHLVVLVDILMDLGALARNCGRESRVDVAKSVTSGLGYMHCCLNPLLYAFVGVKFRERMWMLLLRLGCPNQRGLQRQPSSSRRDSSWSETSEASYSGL
Description: as §1, §2, §3
Activity assays for CXCR4, CXCR3, and CCR7 were performed in agonist and antagonist mode for both SG-3-00802 and SG-3-05021 peptides. […] SG-3-00802 and SG-3-05021 may allow for a mechanism to enhance CXCR3 activation already shown to be a critical pathway in numerous publications as mediating anti-tumor treatment.

T2 sequence (P61073 whole entry): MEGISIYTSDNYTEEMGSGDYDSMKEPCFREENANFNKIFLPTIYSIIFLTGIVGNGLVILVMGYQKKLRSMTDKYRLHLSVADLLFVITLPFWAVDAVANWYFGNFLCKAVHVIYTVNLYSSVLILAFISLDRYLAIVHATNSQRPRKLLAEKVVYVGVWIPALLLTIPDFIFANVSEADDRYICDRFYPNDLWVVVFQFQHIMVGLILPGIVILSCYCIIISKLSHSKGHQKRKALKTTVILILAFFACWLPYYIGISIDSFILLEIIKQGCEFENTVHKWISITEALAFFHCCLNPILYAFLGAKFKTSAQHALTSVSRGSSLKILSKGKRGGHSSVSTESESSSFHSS

Sequence	IFN-γ secretion [1]	TNF-α secretion [1]	CXCL10 induction [2]	CXCR3 receptor internalization [3]	DC-SIGN expression [3]	SelectScreen Agonist Mode [4]	SelectScreen Agonist Mode [5]	SelectScreen Agonist Mode [6]	SelectScreen Antagonist Mode [6]	SelectScreen Antagonist Mode [5]
LGKTDWIEKYFKVKKEKIDKMQRFLQG [SG-3-05021, peptide from bacteroides.clarus.dsm.22519]	increase	increase	high CXCL10 induction	did not induce CXCR3 receptor internalization	down-regulate DC-SIGN	no agonistic activity and No	no agonistic activity and No	no agonistic activity and No	sensitized CXCR3; also recorded: Sensitizer	–
MKVRPSVKPMCEKCKIIRRKGRVMVICENPKHKQRQG [SG-3-00802, peptide from oscillibacter.sp t_155102]	increase	increase	high CXCL10 induction	did not induce CXCR3 receptor internalization	down-regulate DC-SIGN	weak agonistic activity and No	no agonistic activity and No	weak agonistic activity and No	potent reverse antagonistic activity (sensitization); also recorded: sensitized CXCR3; also recorded: Sensitizer	moderate antagonistic activity and no antagonistic activity and Yes
